Reference: EP0036436A1, “Methyl 11alpha,15R-dihydroxy-16,18-methano-16-methyl-9-oxoprost-13E-en-1-oate, a process for its production and composition containing it” (MILES LABORATORIES, INC., priority 1980, dated 1981)
Values joined by “and” are separate entries in the source; they are usually repeats but may differ in a detail not shown here. Identical values can stand only once.

Tests used:
tracheobronchial tract = experiment: irritancy to the tracheobronchial tract: 10 minute aerosol challenge in conscious cats; type: in vivo; details: for times less potent an irritant than PGE1: computer program of relative potencies on the data of Tables I and II, PGE1 as standard; for %ΔRR = percent change in respiratory rate / Cough: conscious cats, 10 minute aerosol challenge
Description: PGE1 and the test compounds were dissolved in absolute ethanol to give stock solutions of 10 mg/ml. These stock solutions and an ethanol vehicle were diluted using isotonic saline adjusted with phosphate buffer to pH 7.2.
Specific pathogen free cats (Category III) of either sex from the Laboratory Animals Centre were used. Conscious cats (2-4 kg) were restrained in an adjustable Perspex box with their heads protruding into a separate Perspex chamber with a seal around the neck. The respiratory pattern and rate of each cat was recorded via a Fleisch head pneumotachograph protruding into the top of the chamber. Sound was recorded by a microphone also protruding into the chamber. An aerosol of 1-8µm particle size was generated by a Monaghan 670 Ultrasonic nebulizer and passed to the cat's face via an opening in the front of the chamber. Each cat was challenged initially for 10 minutes with an aerosol of isotonic saline adjusted with phosphate buffer to pH 7.2 plus the appropriate concentration of ethanol. This control challenge was followed by a 10 minute aerosol challenge of the test compound of PGE1 in the appropriate vehicle. This 10 minute challenge period is much greater than the brief period of inhalation likely to be used in man, but it does produce a larger number of coughs and enables us to determine the potency of the analogue relative to PGE1 in producing other unwanted side effects.
Seven days were left between successive challenges to avoid the development of tolerance. Both drugs were tested in 5 cats using a wide range of concentrations of aerosol stock solutions. Each cat was observed during and up to 24 hours after the experiment for other side effects, e.g., sedation, diarrhea, and salivation.

human bronchial muscle = experiment: relaxation of the human bronchial muscle relative to PGE1; type: cell-based; details: for relative potency to PGE1: relaxation of human bronchial muscle, PGE1 as standard
Description: The compounds prepared as described in Examples I and II, i.e., TR-4681 and TR-4690, were tested to determine their activity in the relaxation of the human bronchial muscle relative to PGE1. […] If potency as a bronchodilator were the only criterion upon which a drug of this type were judged, TR-4690 would be preferred. […] This screen and the results observed in using it to test TR-4681 and TR-4690 are as follows: […]

| SMILES | times more potent an irritant than TR-4681 (tracheobronchial tract; compared with TR-4681) | times less potent an irritant than PGE1 (tracheobronchial tract) | %ΔRR = percent change in respiratory rate (tracheobronchial tract; Conc 1.0 µg/ml) | Cough (tracheobronchial tract; Conc 1.0 µg/ml) | %ΔRR = percent change in respiratory rate (tracheobronchial tract; Conc 10.0 µg/ml) | Cough (tracheobronchial tract; Conc 10.0 µg/ml) | %ΔRR = percent change in respiratory rate (tracheobronchial tract; Conc 50.0 µg/ml) | Cough (tracheobronchial tract; Conc 50.0 µg/ml) | %ΔRR = percent change in respiratory rate (tracheobronchial tract; Conc 100.0 µg/ml) | Cough (tracheobronchial tract; Conc 100.0 µg/ml) | %ΔRR = percent change in respiratory rate (tracheobronchial tract; Conc 500.0 µg/ml) | Cough (tracheobronchial tract; Conc 500.0 µg/ml) | relative potency to PGE1 (human bronchial muscle) | times more potent than TR-4681 as a bronchodilator (human bronchial muscle; relaxing human bronchial muscle, compared with TR-4681) | times less potent an irritant to the tracheobronchial tract than TR-4690 (tracheobronchial tract; compared with TR-4690) |
| --- | --- | --- | --- | --- | --- | --- | --- | --- | --- | --- | --- | --- | --- | --- | --- |
| COC(=O)CCCCCC[C@H]1C(=O)C[C@@H](O)[C@@H]1/C=C/[C@@H](O)C1(C)CCC1 [TR-4690, Methyl 16,19-cyclo-11α,15R-dihydroxy-16-methyl-20-nor-9-oxoprost-13E-en-l-oate] | approximately 25 times | approximately 2 times | +5% | 6 | +11% | 5 | +26% | 15 | +21% | 1 | +39% | 33 | 3.9 | approximately 3 times |  |
| CCCCC[C@H](O)/C=C/[C@H]1[C@H](O)CC(=O)[C@@H]1CCCCCCC(=O)O [PGE1, prostaglandin E1] |  |  |  |  |  |  |  |  |  | 33 and 31 |  | 58 and 63 |  |  |  |
| CCC1CC(C)([C@H](O)/C=C/[C@H]2[C@H](O)CC(=O)[C@@H]2CCCCCCC(=O)OC)C1 (stereo partly drawn) [TR-4681, Methyl 11α,15R-dihydroxy-16,18-methano-16-methyl-9-oxoprost-13E-en-l-oate] |  | approximately 50 times | 0% | 0 | +3% | 0 | +41% | 16 | +41% | 11 | +67% | 14 | 1.33 |  | twenty-five times less potent |
